In US11434242B2, “Dopamine-b-hydroxylase inhibitors” (BIAL-PORTELA & Cª, S.A., priority 2017, dated 2022):

Target: T1, Dopamine beta hydroxylase (Homo sapiens, UniProt P09172)
T1 construct: 125 μl of plasma; tissue Instituto Português do Sangue Transplantação; host or cells: human plasma from healthy donors
T1 sequence (P09172 40-617 limits assumed): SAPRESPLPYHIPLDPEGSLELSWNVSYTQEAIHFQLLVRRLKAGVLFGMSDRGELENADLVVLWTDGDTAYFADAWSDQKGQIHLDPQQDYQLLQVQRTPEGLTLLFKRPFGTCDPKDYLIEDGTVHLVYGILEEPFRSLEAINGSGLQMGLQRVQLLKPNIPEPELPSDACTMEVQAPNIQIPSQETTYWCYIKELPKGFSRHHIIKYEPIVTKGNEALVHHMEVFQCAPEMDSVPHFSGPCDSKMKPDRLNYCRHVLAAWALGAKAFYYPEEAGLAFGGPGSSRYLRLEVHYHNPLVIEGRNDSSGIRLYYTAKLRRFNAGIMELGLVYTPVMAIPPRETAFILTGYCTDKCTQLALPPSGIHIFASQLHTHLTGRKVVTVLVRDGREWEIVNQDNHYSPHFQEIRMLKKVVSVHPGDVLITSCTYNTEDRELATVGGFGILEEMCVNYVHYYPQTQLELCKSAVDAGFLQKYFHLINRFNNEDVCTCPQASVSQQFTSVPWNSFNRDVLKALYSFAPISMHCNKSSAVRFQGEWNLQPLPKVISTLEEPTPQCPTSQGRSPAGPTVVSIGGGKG
Test: Dopamine beta hydroxylase activity in human plasma
Type: biochemical
Details: for Plasma (0.01 μM), activity in % of control: inhibitor 0.01 μM; for Plasma (0.1 μM), activity in % of control: inhibitor 0.1 μM; for Plasma (1 μM), activity in % of control: inhibitor 1 μM
Outline: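 Octopamine production from tyramine over 45 min at 37° C, measured photometrically at 330 nm after SCX extraction and periodate oxidation against an octopamine standard curve, indicates plasma DβH activity. Compounds tested at final 10, 100 and 1000 nM in human plasma, pH 5.0 cofactor buffer, 10 min preincubation; results as % of control.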

Structure (SMILES) | Plasma (0.01 μM), activity in % of control | Plasma (0.1 μM), activity in % of control | Plasma (1 μM), activity in % of control
O=C(Cc1[nH]c(=S)n2c1C[C@@H](c1c(F)ccc(Cl)c1F)C2)NCCn1cccn1 [Example 162, (S)—N-(2-(1H-pyrazol-1-yl)ethyl)-2-(6-(3-chloro-2,6-difluorophenyl)-3-thioxo-2,5,6,7-tetrahydro-3H-pyrrolo[1,2-c]imidazol-1-yl)acetamide] | 87.2 % of control | 31.3 % of control | 
Cn1c(CC(N)=O)c2n(c1=S)C[C@H](c1c(F)ccc(Br)c1F)C2 [Example 240, (S)-2-(6-(3-bromo-2,6-difluorophenyl)-2-methyl-3-thioxo-2,5,6,7-tetrahydro-3H-pyrrolo[1,2-c]imidazol-1-yl)acetamide] | 76.1 % of control | 39.2 % of control | 
O=C(Cc1[nH]c(=S)n2c1C[C@@H](c1c(F)ccc(Br)c1F)C2)NCC1CC1 [Example 95, (S)-2-(6-(3-bromo-2,6-difluorophenyl)-3-thioxo-2,5,6,7-tetrahydro-3H-pyrrolo[1,2-c]imidazol-1-yl)-N-(cyclopropylmethyl)acetamide] |  | 24.0 % of control | 0 % of control
O=C(Cc1[nH]c(=S)n2c1C[C@@H](c1c(F)ccc(Br)c1F)C2)N[C@@H]1CCOC1 [Example 90, 2-((S)-6-(3-bromo-2,6-difluorophenyl)-3-thioxo-2,5,6,7-tetrahydro-3H-pyrrolo[1,2-c]imidazol-1-yl)-N—((R)-tetrahydrofuran-3-yl)acetamide] |  | 9.9 % of control | 0.4 % of control
O=C(CCc1[nH]c(=S)n2c1C[C@H](c1c(F)c(F)cc(F)c1F)C2)N1CCC(F)(F)CC1 [Example 206, (R)-1-(4,4-difluoropiperidin-1-yl)-3-(6-(2,3,5,6-tetrafluorophenyl)-3-thioxo-2,5,6,7-tetrahydro-3H-pyrrolo[1,2-c]imidazol-1-yl)propan-1-one] | 22.4 % of control | 8.7 % of control | 
O=C(Cc1[nH]c(=S)n2c1C[C@@H](c1c(F)ccc(Br)c1F)C2)N1CCC2(CCOC2)CC1 [Example 165, (S)-2-(6-(3-bromo-2,6-difluorophenyl)-3-thioxo-2,5,6,7-tetrahydro-3H-pyrrolo[1,2-c]imidazol-1-yl)-1-(2-oxa-8-azaspiro[4.5]decan-8-yl)ethan-1-one] | 74.3 % of control | 14.8 % of control | 
Cn1c(CC(=O)N[C@@H]2CCCOC2)c2n(c1=S)C[C@@H](c1c(F)ccc(F)c1F)C2 [Example 255, 2-((R)-2-methyl-3-thioxo-6-(2,3,6-trifluorophenyl)-2,5,6,7-tetrahydro-3H-pyrrolo[1,2-c]imidazol-1-yl)-N—((R)-tetrahydro-2H-pyran-3-yl)acetamide] | 71.8 % of control | 24.6 % of control | 
CC1CCN(C(=O)CCc2[nH]c(=S)n3c2C[C@H](c2c(F)c(F)cc(F)c2F)C3)CC1 [Example 208, (R)-1-(4-methylpiperidin-1-yl)-3-(6-(2,3,5,6-tetrafluorophenyl)-3-thioxo-2,5,6,7-tetrahydro-3H-pyrrolo[1,2-c]imidazol-1-yl)propan-1-one] | 62.0 % of control | 13.3 % of control | 
CS(=O)(=O)C1CCN(CCc2[nH]c(=S)n3c2C[C@H](c2c(F)ccc(Br)c2F)C3)CC1 [Example 179, (R)-6-(3-bromo-2,6-difluorophenyl)-1-(2-(4-(methylsulfonyl)piperidin-1-yl)ethyl)-2,5,6,7-tetrahydro-3H-pyrrolo[1,2-c]imidazole-3-thione] | 93.5 % of control | 48.8 % of control | 
CC(C)NC(=O)Cc1[nH]c(=S)n2c1C[C@H](c1c(F)ccc(Br)c1F)C2 [Example 133, (R)-2-(6-(3-bromo-2,6-difluorophenyl)-3-thioxo-2,5,6,7-tetrahydro-3H-pyrrolo[1,2-c]imidazol-1-yl)-N-isopropylacetamide] | 95.9 % of control | 82.4 % of control | 
Fc1cc(F)c(F)c([C@H]2Cc3c(CCc4cccnc4)[nH]c(=S)n3C2)c1F [Example 212, (R)-1-(2-(pyridin-3-yl)ethyl)-6-(2,3,5,6-tetrafluorophenyl)-6,7-dihydro-2H-pyrrolo[1,2-c]imidazole-3(5H)-thione] | 86.5 % of control | 46 % of control | 

The next lines start with the values.

Plasma (0.01 μM), activity in % of control | Plasma (0.1 μM), activity in % of control | Plasma (1 μM), activity in % of control | Structure (SMILES)
54.3 % of control | 10.1 % of control |  | CN(C(=O)Cc1c2n(c(=S)n1C)C[C@@]1(c3cc(Cl)ccc3F)C[C@@H]21)C1COC1 [Example 431, 2-((5aS,6aR)-5a-(5-chloro-2-fluorophenyl)-2-methyl-3-thioxo-2,3,5,5a,6,6a-hexahydrocyclopropa[3,4]pyrrolo[1,2-c]imidazol-1-yl)-N-methyl-N-(oxetan-3-yl)acetamide]
90.0 % of control | 40.7 % of control |  | CN(C(=O)Cc1c2n(c(=S)n1C)C[C@@H](c1c(F)c(F)cc(F)c1F)C2)C1CCOC1 (stereo partly drawn) [Example 375, N-methyl-2-((R)-2-methyl-6-(2,3,5,6-tetrafluorophenyl)-3-thioxo-2,5,6,7-tetrahydro-3H-pyrrolo[1,2-c]imidazol-1-yl)-N-(tetrahydrofuran-3-yl)acetamide]
50.7 % of control | 4.5 % of control |  | CN(C(=O)Cc1c2n(c(=S)n1C)C[C@H](c1c(F)ccc(Br)c1F)C2)C1CCOCC1 [Example 405, (S)-2-(6-(3-bromo-2,6-difluorophenyl)-2-methyl-3-thioxo-2,5,6,7-tetrahydro-3H-pyrrolo[1,2-c]imidazol-1-yl)-N-methyl-N-(tetrahydro-2H-pyran-4-yl)acetamide]
89.7 % of control | 13.3 % of control |  | Cl.Cn1c(CC(=O)N2CCNCC2)c2n(c1=S)C[C@@]1(c3cc(Br)ccc3F)C[C@@H]21 [Example 321, 2-((5aS,6aR)-5a-(5-bromo-2-fluorophenyl)-2-methyl-3-thioxo-2,3,5,5a,6,6a-hexahydrocyclopropa[3,4]pyrrolo[1,2-c]imidazol-1-yl)-1-(piperazin-1-yl)ethan-1-one Hydrochloride]
64.2 % of control | 12.8 % of control |  | Cn1c(CC(=O)N[C@H]2CCOC2)c2n(c1=S)C[C@@]1(c3cc(Br)ccc3F)C[C@@H]21 [Example 308, 2-((5aS,6aR)-5a-(5-bromo-2-fluorophenyl)-2-methyl-3-thioxo-2,3,5,5a,6,6a-hexahydrocyclopropa[3,4]pyrrolo[1,2-c]imidazol-1-yl)-N—((S)-tetrahydrofuran-3-yl)acetamide]
43.6 % of control | 10.0 % of control |  | CN(C(=O)Cc1c2n(c(=S)n1C)C[C@@]1(c3c(F)ccc(Cl)c3F)C[C@@H]21)C1CCOC1 (stereo partly drawn) [Example 442, 2-((5aS,6aR)-5a-(3-chloro-2,6-difluorophenyl)-2-methyl-3-thioxo-2,3,5,5a,6,6a-hexahydrocyclopropa[3,4]pyrrolo[1,2-c]imidazol-1-yl)-N-methyl-N-(tetrahydrofuran-3-yl)acetamide]
27.7 % of control | 3.0 % of control |  | Cn1c(CC(=O)N[C@H]2CCOC2)c2n(c1=S)C[C@@]1(c3c(F)ccc(Cl)c3F)C[C@@H]21 [Example 418, 2-((5aS,6aR)-5a-(3-chloro-2,6-difluorophenyl)-2-methyl-3-thioxo-2,3,5,5a,6,6a-hexahydrocyclopropa[3,4]pyrrolo[1,2-c]imidazol-1-yl)-N—((S)-tetrahydrofuran-3-yl)acetamide]
73.9 % of control | 33.0 % of control |  | O=C(Cc1[nH]c(=S)n2c1[C@@H]1C[C@]1(c1cc(Br)ccc1F)C2)N[C@@H]1CCOC1 [Example 307, 2-((5aS,6aR)-5a-(5-bromo-2-fluorophenyl)-3-thioxo-2,3,5,5a,6,6a-hexahydrocyclopropa[3,4]pyrrolo[1,2-c]imidazol-1-yl)-N—((R)-tetrahydrofuran-3-yl)acetamide]
66.9 % of control | 10.8 % of control |  | CN(C(=O)Cc1[nH]c(=S)n2c1[C@@H]1C[C@]1(c1c(F)ccc(Cl)c1F)C2)C1CCOC1 (stereo partly drawn) [Example 396, 2-((5aS,6aR)-5a-(3-chloro-2,6-difluorophenyl)-3-thioxo-2,3,5,5a,6,6a-hexahydrocyclopropa[3,4]pyrrolo[1,2-c]imidazol-1-yl)-N-methyl-N-(tetrahydrofuran-3-yl)acetamide]
